Data from doi:10.1101/322404v1, “Discovery of a novel stereospecific β-hydroxyacyl-CoA lyase/thioesterase shared by three metabolic pathways in Mycobacterium tuberculosis” (biorxiv, 2018).

What was measured:
Rv2498c [1] = biological target: T1, Rv2498c (Mycobacterium tuberculosis, UniProt P9WPE1)
T1 construct: gene citE

Rv2498c [2] = biological target: T1, Rv2498c; remark: listed apart in the source
Rv2498c [3] = biological target: T1, Rv2498c; remark: listed apart in the source
Rv2498c [4] = biological target: T1, Rv2498c; remark: listed apart in the source

T1 sequence (P9WPE1 whole entry): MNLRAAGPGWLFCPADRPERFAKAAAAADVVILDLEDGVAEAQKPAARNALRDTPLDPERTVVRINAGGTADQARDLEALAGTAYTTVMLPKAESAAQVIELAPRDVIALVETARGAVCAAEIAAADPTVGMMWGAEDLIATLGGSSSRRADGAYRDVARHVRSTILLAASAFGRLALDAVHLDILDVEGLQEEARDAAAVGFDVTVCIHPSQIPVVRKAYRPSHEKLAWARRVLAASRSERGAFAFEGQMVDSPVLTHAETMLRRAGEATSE

## CC(C)(COP(=O)(O)OP(=O)(O)OC[C@H]1O[C@@H](n2cnc3c(N)ncnc32)[C@H](O)[C@@H]1OP(=O)(O)O)[C@@H](O)C(=O)NCCC(=O)NCCSC(=O)C[C@](C)(O)C(=O)O [(S)-citramalyl-CoA]
Rv2498c [1]
  X-ray crystal structure, 1.83 A: two citramalyl-CoA molecules

## CC(C)(COP(=O)(O)OP(=O)(O)OC[C@H]1O[C@@H](n2cnc3c(N)ncnc32)[C@H](O)[C@@H]1OP(=O)(O)O)[C@@H](O)C(=O)NCCC(=O)NCCS [CoA]
Rv2498c [2]
  X-ray crystal structure, 1.72 A (6ARB) and 2.04 A (6AS5): A magnesium ion, coordinated pyruvate, and CoA molecule were observed in the active sites

## CC(C)(COP(=O)(O)OP(=O)(O)OC[C@H]1O[C@@H](n2cnc3c(N)ncnc32)[C@H](O)[C@@H]1OP(=O)(O)O)[C@@H](O)C(=O)NCCC(=O)NCCSC(=O)C[C@H](O)C(=O)O [(S)-malyl-CoA]
Rv2498c [3]
  HPLC thioesterase assay: Rv2498c was found to subsequently catalyse the hydrolysis of the thioester bond of (S)-malyl-CoA

## CC(C)(COP(=O)(O)OP(=O)(O)OC[C@H]1O[C@@H](n2cnc3c(N)ncnc32)[C@H](O)[C@@H]1OP(=O)(O)O)[C@@H](O)C(=O)NCCC(=O)NCCSC(=O)C[C@](C)(O)CC(=O)O [(R)-HMG-CoA]
Rv2498c [4]
  HPLC lyase assay and 1H NMR of products: we found that Rv2498c is a lyase specific for the (R)-HMG-CoA
